Test results: patent US20180311204A1, “METHOD FOR PREVENTING OR TREATING HEART FAILURE” (GUANGZHOU MEDICAL UNIVERSITY, priority 2017, published 2018)

Experiments:
[1] = system: Myocardial Ischemia Rat Model; assay: Echocardiography in myocardial ischemia rat model (LAD ligation), effect of nobiletin on ventricle; type: in vivo; details: 21-day experiment, compared to the infarction group
[2] = system: Myocardial Ischemia Rat Model; assay: Determination of infarct size by TTC staining; type: in vivo; details: compared to the infarction group
Method: 60 rats were randomized into 6 groups: (i) sham group (Sham), n=10, (left anterior descending (LAD) coronary arteries of the rats were only laid upon sutures without ligation, and 0.5% Tween normal saline was injected intraperitoneally); (ii) infarction group (AMI), n=10, (LAD coronary arteries of the rats were ligated before 0.5% Tween normal saline was injected intraperitoneally); (iii) nobiletin group of low dosage (AMI+NOB-L, n=10; LAD coronary arteries of the rats were ligated before 7.5 mg/kg nobiletin was injected intraperitoneally); (v) nobiletin group of medium dosage (AMI+NOB-M), n=10, (LAD coronary arteries of the rats were ligated before 15 mg/kg nobiletin was injected intraperitoneally); (vi) nobiletin group of high dosage (AMI+NOB-H), n=10, (LAD coronary arteries of the rats were ligated before 30 mg/kg nobiletin was injected intraperitoneally); (vii) enalapril group (AMI+Enalapril), n=10, (LAD coronary arteries of the rats were ligated before 10 mg/kg enalapril was given intragastrically); echocardiograms were taken after the 21-day experiment. Male SD rats were weighed and then anaesthetized by intraperitoneal injections of 10% chloral hydrate (300 mg/kg). The rats were fixed on a table lying on their back, each connected with an electrocardiography and 2-lead electrocardiograms (ECGs) were recorded. The rats were inserted with trachea cannulas and artificially ventilated with a ventilator (positive airway pressure, frequency: 70 times/min, Ti/(I:E)=5:4, VT: about 15 ml/kg). Sterilized the left parasternal skin on the third and forth intercostals regions, cut the skin and separated muscle layers trough blunt dissection, opened the thorax, then cut the pericardium to expose the left ventricle and the left auricle, the left ventricle coronary artery was seen descending from the middle of the left auricle to the anterior wall of the left ventricle (see FIG. 1). Using left coronary artery as a reference, between left auricle and pulmonary conus arteriosus, the left anterior descending (LAD) coronary arteries of the rats were ligated by NO. 6-0 sutures. ST segments rose in 2-lead electrocardiogram of the rat after LAD ligation (see FIG. 2), and myocardial ischemia symptoms such as the distal myocardial tissues turned pale after LAD ligation acted as an index of whether the ligation worked (see FIG. 3). Sham-treated rats underwent the same surgical procedure without the ligation of LAD coronary artery. […] When myocardial infarction occurs for some time, dehydrogenases in the cells were released and lost due to cell membrane damages. Because TTC is not deoxidized into a colored form, infarcted myocardium cannot be stained. […] (2) […]: Removed atriums and right ventricles, restored left ventricles were weighed and recorded. […] Weighed and recorded each slices. […]

H9C2 cells = assay: Apoptosis detection by Annexin V/PI staining in cardiomyocytes subjected to oxygen-glucose deprivation (OGD); type: cell-based; details: H9C2 cells with OGD treatment, 5, 10, 20, 40, 80 μM nobiletin, dose-dependent manner, versus OGD control
Method: In vitro, H9C2 cells with OGD treatment were used to model myocardial ischemia. OGD treatment: the cells were cultured and subjected to OGD when the density of the cells reached to 80%-90%. Collected the OGD-treated cells from the medium and rinsed trice with glucose-free EBSS, after that cultured the cells in the same medium at 37° C. in an anoxia chamber saturated with 94% N2/5% CO2/1% O2 for a preset time.
After previous procedures, the cells were digested with 0.25% trypsin and collected to stain with both fluorescein isothiocyanate (FITC) labeled […] (Annexin V-FITC) and PI (according to the manufacturer's protocol of Annexin V-FITC kits). Flow cytometry detection was carried out immediately under an excitation wavelength of […] to detect 1×10^4 cells. PI emits light of a wavelength about 623 nm (red fluorescence) while FITC emits light of about 520 nm (green fluorescence). Analyzed the detection data by CELLQEST Software and the results were shown in scatter plots (see FIG. 9A-9F) and statistics (see FIG. 10).

[3] = AMI+NOB-H, 30 mg/kg intraperitoneally
[4] = AMI+NOB-M, 15 mg/kg intraperitoneally
[5] = nobiletin groups (7.5, 15, 30 mg/kg intraperitoneally)
[6] = AMI+Enalapril, 10 mg/kg intragastrically
[7] = enalapril group, 10 mg/kg intragastrically

SMILES	left ventricular ejection fraction (LVEF) [1, 3]	left ventricular fractional shortening (LVFS) [1, 3]	rise of left ventricular internal dimension, diastolic (LVIDD) [1, 3]	rise of left ventricular internal dimension, systolic (LVIDS) [1, 3]	left ventricular ejection fraction (LVEF) [1, 4]	left ventricular fractional shortening (LVFS) [1, 4]	rise of left ventricular internal dimension, diastolic (LVIDD) [1, 4]	rise of left ventricular internal dimension, systolic (LVIDS) [1, 4]	infarct area percentages (FIG. 8) [2, 5]	white infarct areas in TTC-stained myocardium (FIG. 7) [2, 5]	apoptosis resulting from OGD (H9C2 cells)	left ventricular ejection fraction (LVEF) [1, 6]	left ventricular fractional shortening (LVFS) [1, 6]	rise of left ventricular internal dimension, diastolic (LVIDD) [1, 6]	rise of left ventricular internal dimension, systolic (LVIDS) [1, 6]	infarct area percentages (FIG. 8) [2, 7]	white infarct areas in TTC-stained myocardium (FIG. 7) [2, 7]
COc1ccc(-c2cc(=O)c3c(OC)c(OC)c(OC)c(OC)c3o2)cc1OC [nobiletin]	significantly increased	significantly increased	no significant reduction	significantly reduced	significantly increased	significantly increased	no significant reduction	significantly reduced	lower	smaller	significantly reduced	–	–	–	–	–	–
CCOC(=O)[C@H](CCc1ccccc1)N[C@@H](C)C(=O)N1CCC[C@H]1C(=O)O [enalapril, reference compound]	–	–	–	–	–	–	–	–	–	–	–	significantly increased	significantly increased	no significant reduction	significantly reduced	lower	smaller
